Laboratory results: patent US20240173369A1 (priority 2021, published 2024)
In brackets after ≈: the same amount, converted by molar mass.

Experiments:
[1] = test system: Pseudomonas aeruginosa strains 883, 762, PAO1; test: Synergism with antibiotic in liquid infection (OD600 growth curves); format: cell-based
Method: To test the efficacy of the phage and antibiotics in liquid culture, bacterial host cells were grown overnight in TSB at 37° C. with shaking at 180 rpm to OD600>1.5. In addition, each phage was diluted to a concentration of 5×10^7 PFU/ml in TSB and used individually or combined equally with other phages into a cocktail. Then, 1 mM ions were added, and 200 μL was dispensed per well in a 96-well plate to a final concentration of […]. For no phage control (NPC), TSB containing 1 mM ions was used. Antibiotics was added to the relevant wells (aztreonam 4 μg/mL, colistin 2 μg/mL for “883,” 4 μg/mL for “762” and 6 μg/mL for PAO1). Then, 2 μL of the bacterial culture was added to the wells (dilution of 1:100). TSB containing 1 mM ions was used as NPC. Two repeats were done for each treatment, and TSB media served as a blank. 50 μL of mineral oil added were added to each well to reduce evaporation of the samples, and the plate was covered with a sterile film to allow for bacterial growth and keep the culture sterile. Plates were incubated for approximately 30 hours in a plate reader at 37° C. with shaking, and OD600 was measured every 20 minutes. Two biological repeats were performed for the assay.

[2] = test system: P. aeruginosa embedded in pre-formed biofilm; test: Viability of P. aeruginosa embedded in pre-formed biofilm (BacTiter-Glo); format: cell-based, Pseudomonas aeruginosa; settings: 24 h biofilm, 6 hours treatment; RLU converted to cCFU
Method: To test the effect of phage on biofilm, starters of the relevant bacteria were grown overnight. Three isolated single colonies of the relevant strains were picked into 3 mL TSB and shook overnight at 37° C., 180 rpm, to an OD600>1, one starter used for each of two biological repeats. The next day, the starters were dispersed in 96 wells plate and the biofilm was left to form for 24 hours: cultures were diluted 1:100 in 3 mL fresh TSB (Tryptic Soy Broth) medium and OD600 was adjusted to ˜0.05 (˜4×10^7 CFU/mL). 200 μL of the diluted inoculums were added per well in a 96 well culture plate (Biofil, cat #TCP-011-096) according to the plate layout. 200 μL TSB was used for blank wells. […] After the incubation period, the supernatant was carefully removed (media, waste, phages/antibiotics, and planktonic cells) the biofilm was washed again with 200 μL PBS (Phosphate-buffered saline, Hylabs, cat #BP655) and its biomass measured (staining with crystal violet (CV) and/or viable cells (plating for CFU enumeration).
For host cells viability assessment, the BacTiter-Glo (Promega, cat #G8231) method was used. The method measures viable bacterial cells based on quantification of the ATP present in the viable cells. The readout is a luminescent signal (in relative light units (RLU)) in an ATP-dependent reaction. […]

P. aeruginosa = test: Minimal inhibitory concentration; format: cell-based; settings: Pseudomonas aeruginosa

With `C[C@H]1[C@H](NC(=O)/C(=N\OC(C)(C)C(=O)O)c2csc(N)n2)C(=O)N1S(=O)(=O)O` [aztreonam] the “effect on bacterial growth / appearance of bacteria mutants” value ([1]; PsA strains (e.g., PAO1, 883)) was “slower bacterial growth throughout the observed period”.
In the case of `NC[C@H]1O[C@H](O[C@H]2[C@H](O)[C@@H](O[C@H]3O[C@H](CO)[C@@H](O)[C@H](N)[C@H]3O)[C@H](N)C[C@@H]2N)[C@H](N)C[C@@H]1O` [Tobramycin, tobramycin], the “time growth was suppressed” value ([1]; PsA strains, single treatment alone) is reported as “approximately 25 hours”.
`C[C@@H](O)[C@H]1C(=O)N2C(C(=O)O)=C(SCCN=CN)C[C@H]12` [antibiotic, imipenem] was tested, and the “reduction of bacterial burden of embedded PsA” value [2] was roughly 1 logs and the MIC (P. aeruginosa) was 4 µg/mL (≈ 13.4 µM).
